# Laboratory results taken from patent US20240415919A1, “COMPOSITIONS AND METHODS FOR TREATMENT OF AUTOIMMUNE DISORDERS AND CANCER” (Dana-Farber Cancer Institute, Inc., priority 2021, published 2024).
# “Also recorded” adds a separate entry of the source.
# Key:
# EL4 tumor cells (Qa-1+) = test: EL4 tumor growth in B6 mice; type: in vivo, mouse; details: EL4 (Qa-1 WT) in B6 mice; vs isotype control / IFA alone; listed as FL9-68 SA
# Procedure: FIG. 9A-B provides a graphical representation showing that the depletion of CD8 Treg enhances anti-tumor immune responses. WT B6 mice were inoculated with 2×10^5 EL4 (Qa-1 WT) orEL4-Qa-1 KO cells. Mice received EL4 WT or EL4 Qa-1 KO cells were treated with four different conditions: 1) PBS/IFA+ isotype control Ab (mIgG1), 2) PBS/IFA+ anti-Ly49F Ab, 3) PBS/IFA+anti-Qa-1 Ab and 4) FL9.68/IFA+isotype Ab (mIgG1). 100 ug of FL9.68 peptide (day 0 and day 10), 50 ug of anti-Ly49F Ab and 100 ug of anti-Qa-1 Ab (day 0, 3 and 6) were injected respectively. A) Status of Ly49+CD8 cells in the blood at day 3 and 6 after tumor induction (panel A). Tumor growth in mice inoculated with EL4 WT (left) andEL4 Qa-1 KO (right) tumor cells until day 7. […] This effect was not observed in mice inoculated with EL4-Qa-1KO tumor cells (panel B).
# Balb/C heart allografts = test: Balb/C heart transplantation into skin-sensitized B6 hosts after peptide vaccination; details: for heart graft survival: compared to adjuvant alone; for graft pathology (C4d deposition, immune cell infiltration): heart allografts; for donor-specific antibody (DSA): heart graft / skin-sensitized recipients
# Procedure: After selecting FL9-SA, we performed BALB/c to B6 skin transplantation with or without Hsp60p2l6 and FL9-SA, followed by heart transplantation.
# B6 mice were immunized i.p with 50 μg FL9-68/IFA or with IFA alone at day 0 and 7 followed by a BALB/C→B6 skin transplant at day 10. FL9-68/IFA or IFA immunization was repeated on days 10, 13 and 16. At day 27, fully vascularized Balb/C hearts were transplanted into the abdominal cavity of B6 mice using microsurgical techniques, as previously described (Cai et al., 2016). Heart graft survival was determined by monitoring palpable heart beating. At day X after skin sensitization, levels of FL9 T cells, Tfh, GC B and plasma cells in dLNs were analyzed by flowcytometry. Serum was collected from the heart graft recipient B6 mice that were either immunized with FL9-68/IFA or IFA alone at day 16. […] Histological analysis of heart grafts was performed by InvivoEx company using anti-C4d Ab (Hycult Biotech) and Vector Blue Alkaline Phosphatase Substrate Kit (Vector Laboratories).
# B6 mice were immunized i.p with 50 μg FL9-68-Adjuvant (IFA or AddaVax™) or Adjuvant alone at day 0 and 7 followed by a BALB/C→B6 skin transplant at day 10. FL9-68-Adj or Adj immunization was repeated on days 10, 13 and 16. At day 27, fully vascularized Balb/C hearts were transplanted into the abdominal cavity of B6 mice using microsurgical techniques, as previously described^36. Heart graft survival was determined by monitoring palpable heart beating. At day 16 after skin sensitization, levels of FL9 T cells, Tfh, GC B and plasma cells in dLNs were analyzed by flowcytometry. Serum was collected from the heart graft recipient B6 mice that were either immunized with FL9-68/IFA or IFA alone at day 16. […] Histological analysis of heart grafts was performed by InvivoEx company using anti-C4d Ab (Hycult Biotech) and Vector Blue Alkaline Phosphatase Substrate Kit (Vector Laboratories).
# FL9.2 T cells = test: FL9 peptide immunization of hosts adoptively transferred with FL9.2 T cells; type: in vivo, mouse; details: i.p. immunization with peptide in CFA; CD45.1+ B6 or TCRα-/- hosts
# Procedure: CD45.1+B6 hosts were adoptively transferred with FL9.2 T cells and immunized i.p. with FL9 in CFA or no peptide (CFA alone) on day 0. Three days later, activation (CD69) proliferation of FL9.2 T cells (Ki67) was measured.
# (§1) CD45.1^+ B6 or TCRα^−/− mice were transferred with CFSE labelled 2×10^6 FL9.2 Tg T cells followed by i.p. immunization with 100 μg FL9 or FL9-68 peptides in CFA. Proliferation and activation of FL9.2 Tg T cells in the adoptive hosts were analzyed by assessing CFSE dilution, Ki67 and CD69 expression at day 3 and 6 after transfer.
# as §1, with “CD45.1^+B6” for “CD45.1^+ B6”
sequence,measurement,setting,value
"FYAEATLML [FL9-68, FL9 peptide variant containing a P→L substitution at pos 7; superagonist for CD8 Treg]",EL4 tumor growth,EL4 tumor cells (Qa-1+),facilitated tumor growth
same,increase in FL9-specific CD8 cells within the Ly49+ CD8 T cell pool,Balb/C heart allografts; B6 mice bearing Balb/C skin allograft,4-5 fold
same,heart graft survival,Balb/C heart allografts,significantly prolonged graft survival times; also recorded: promotes graft survival
same,heart graft survival,Balb/C heart allografts; listed as SA peptide,significantly prolonged graft survival
same,"graft pathology (C4d deposition, immune cell infiltration)",Balb/C heart allografts,markedly diminished graft pathology; also recorded: inhibits graft tissue injury
same,"graft pathology (C4d deposition, immune cell infiltration)",Balb/C heart allografts; listed as FL9 SA peptide,maintenance of tissue integrity
same,donor-specific antibody (DSA),Balb/C heart allografts,decrease of donor specific Ab (DSA) generation; also recorded: reduced donor-specific antibody (DSA) responses; also recorded: inhibits production of DSA
same,donor-specific antibody (DSA),Balb/C heart allografts; listed as FL9 SA peptide,reduced generation of donor specific antibodies
same,"GC response: Tfh, GC B and plasma cells","Balb/C heart allografts; heart graft recipients, vs IFA alone","significant reduction of these cells; also recorded: decreased Tfh, GC B and plasma cell formation; also recorded: significantly reduced GC responses; also recorded: inhibition of GC Ab response"
same,alloreactive activated CD4 cells,Balb/C heart allografts; recipient CD4 cells co-incubated with irradiated donor splenocytes,decrease in alloreactive activated CD4 cells
same,efficacy relative to Hsp60p216,"Balb/C heart allografts; reduction in Tfh and mature B cells during sensitization, listed as FL9-SA",substantially more efficacious than Hsp60p2l6
same,in vivo activation/proliferation of transferred FL9 TCR+ CD8 T cells,FL9.2 T cells,activated FL9 TCR^+ CD8 T cells; also recorded: activates FL9 T cells in vivo
